According to patent EP3040345A1, “Sodium channel subunits of pollinator insects and uses thereof” (Centre National de la Recherche Scientifique (CNRS), priority 2014, dated 2016):
Several values for one entry are separate records, joined by “and”; a condition that tells them apart may be missing. Identical values can stand only once. Entries after “also recorded” stand apart in the source; their conditions may differ.

Key:
honeybee Para channel = honeybee Para channel (Apis mellifera, UniProt C9D7C5); experiment: Two-microelectrode voltage-clamp of Xenopus oocytes co-expressing Para channel and TipE; pyrethroid-induced tail currents; format: cell-based; settings: for tail current induction: after conditioning pulses (-80mV to -20mV, 100 Hz), Para + TipE; for Hill coefficient: Hill fit of dose-response curve of tail current
honeybee Para channel, sequence (C9D7C5 1-2044): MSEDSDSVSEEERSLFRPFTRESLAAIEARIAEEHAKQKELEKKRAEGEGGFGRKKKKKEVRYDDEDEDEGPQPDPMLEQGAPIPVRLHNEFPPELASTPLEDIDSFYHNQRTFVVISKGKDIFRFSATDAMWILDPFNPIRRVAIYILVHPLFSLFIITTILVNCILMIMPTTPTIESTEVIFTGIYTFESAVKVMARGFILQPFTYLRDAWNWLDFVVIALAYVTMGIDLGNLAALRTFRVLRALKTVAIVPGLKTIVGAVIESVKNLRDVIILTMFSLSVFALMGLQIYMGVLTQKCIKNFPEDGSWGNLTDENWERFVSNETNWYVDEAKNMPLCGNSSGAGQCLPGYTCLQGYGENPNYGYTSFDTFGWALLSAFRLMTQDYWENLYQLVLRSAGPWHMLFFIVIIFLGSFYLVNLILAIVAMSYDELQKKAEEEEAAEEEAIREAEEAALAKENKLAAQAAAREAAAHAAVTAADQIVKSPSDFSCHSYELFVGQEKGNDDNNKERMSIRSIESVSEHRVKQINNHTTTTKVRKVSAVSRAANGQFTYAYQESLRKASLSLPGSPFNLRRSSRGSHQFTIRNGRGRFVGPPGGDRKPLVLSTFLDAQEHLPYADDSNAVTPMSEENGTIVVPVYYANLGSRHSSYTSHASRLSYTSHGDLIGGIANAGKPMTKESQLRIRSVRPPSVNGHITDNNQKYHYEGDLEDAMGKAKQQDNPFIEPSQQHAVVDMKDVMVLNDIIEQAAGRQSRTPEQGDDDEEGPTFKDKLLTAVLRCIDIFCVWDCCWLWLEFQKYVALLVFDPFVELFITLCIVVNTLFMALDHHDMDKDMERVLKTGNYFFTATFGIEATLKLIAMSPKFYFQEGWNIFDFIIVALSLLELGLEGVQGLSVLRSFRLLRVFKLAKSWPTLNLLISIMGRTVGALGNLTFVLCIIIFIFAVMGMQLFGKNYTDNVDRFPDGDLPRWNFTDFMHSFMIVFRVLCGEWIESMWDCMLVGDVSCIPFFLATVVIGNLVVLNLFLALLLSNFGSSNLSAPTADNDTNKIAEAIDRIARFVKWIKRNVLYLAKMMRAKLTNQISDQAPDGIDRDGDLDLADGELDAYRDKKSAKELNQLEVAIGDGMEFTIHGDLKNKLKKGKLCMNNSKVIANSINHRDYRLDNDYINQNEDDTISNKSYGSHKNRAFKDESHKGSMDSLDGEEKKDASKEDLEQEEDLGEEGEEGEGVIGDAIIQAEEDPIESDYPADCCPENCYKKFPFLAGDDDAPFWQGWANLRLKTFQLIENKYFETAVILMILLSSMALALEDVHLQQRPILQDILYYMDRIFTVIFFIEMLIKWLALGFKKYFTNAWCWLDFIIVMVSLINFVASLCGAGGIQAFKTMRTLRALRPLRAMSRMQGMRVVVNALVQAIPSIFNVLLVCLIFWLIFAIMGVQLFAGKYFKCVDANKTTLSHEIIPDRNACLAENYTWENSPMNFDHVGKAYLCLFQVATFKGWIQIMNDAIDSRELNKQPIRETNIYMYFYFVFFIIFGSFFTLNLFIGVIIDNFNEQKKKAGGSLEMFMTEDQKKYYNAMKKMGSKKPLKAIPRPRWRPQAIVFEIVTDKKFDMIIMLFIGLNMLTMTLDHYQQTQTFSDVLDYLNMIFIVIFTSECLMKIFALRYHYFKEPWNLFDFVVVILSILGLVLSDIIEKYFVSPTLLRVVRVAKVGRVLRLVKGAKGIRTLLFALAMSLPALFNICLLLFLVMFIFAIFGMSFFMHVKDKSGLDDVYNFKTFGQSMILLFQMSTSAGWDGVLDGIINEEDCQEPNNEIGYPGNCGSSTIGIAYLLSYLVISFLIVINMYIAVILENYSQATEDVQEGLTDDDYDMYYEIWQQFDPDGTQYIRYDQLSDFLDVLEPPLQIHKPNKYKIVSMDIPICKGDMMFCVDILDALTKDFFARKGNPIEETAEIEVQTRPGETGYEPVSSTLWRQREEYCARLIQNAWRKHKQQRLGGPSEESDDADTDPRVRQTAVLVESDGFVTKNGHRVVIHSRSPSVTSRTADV
Protocol: Xenopus oocytes were handled in accordance with the principles and guidelines of the Université Laval animal protection committee and the Canadian Council on Animal Care. […] They were then treated with 2 mg/ml collagenase (Collagenase type 1A from Clostridium histolyticum, Sigma) in OR2 solution for 1 h. They were then incubated for at least 1 h at 18°C in OR3 solution. Stage IV and V oocytes were microinjected with mRNA corresponding to the Para channel and the selected regulatory subunit (1 µg/µl for Para and 0.3 µg/µl for regulatory subunits, 50 nl/oocyte). The injected oocytes were incubated at 18°C in OR3 solution for at least 12 h before taking recordings.
Macroscopic currents from mRNA-injected oocytes were recorded in Ringer's solution using the two-microelectrode voltage-clamp technique. The membrane potential for the two-microelectrode voltage-clamp technique was controlled using a Warner oocyte clamp (Warner Instrument Corp.). The currents were filtered at 5 kHz (-3 dB; four-pole Bessel filter). The headstage of the Warner amplifier was attached to a plastic pool containing a 3M NaCl solution through a silver chloride wire connected to the bath solution using an agar bridge. The bridge contained 3% agar (w/v), 500 mM NMDG, and 10 mM HEPES (pH 7.4) and was threaded with a thin platinum/iridium wire to lower high-frequency impedance.
The pH was adjusted to 7.6 at 22°C using 1 M NaOH.
The dose-response curves obtained from these calculations were fitted to a Hill curve using the following equation: M = (MMax)/(1 + ((EC50/dose))^h), [formula] where h is the Hill coefficient, Mmax is the maximal fraction of channels affected, EC50 is the half-maximal effective concentration, and dose is the concentration at which the observation was made.
Current decay and tail current kinetics were fitted to the following equation when a single exponential was used: [formula] and to the following equation when double exponential was used: [formula] where y0 is the initial value, A is the weight of the exponential, and τ is the time constant of the exponential.

[1] = target: sodium current of honeybee antennal olfactory receptor neurons; settings: Kadala A et al. 2011; cited from earlier work
drosophila Para channel = drosophila Para channel (Drosophila melanogaster, UniProt P35500); settings: read-out: EC50 for the drosophila channel; Vais H et al. 2003, ATX-II used to inhibit inactivation; cited from earlier work
drosophila Para channel, sequence (P35500 whole entry): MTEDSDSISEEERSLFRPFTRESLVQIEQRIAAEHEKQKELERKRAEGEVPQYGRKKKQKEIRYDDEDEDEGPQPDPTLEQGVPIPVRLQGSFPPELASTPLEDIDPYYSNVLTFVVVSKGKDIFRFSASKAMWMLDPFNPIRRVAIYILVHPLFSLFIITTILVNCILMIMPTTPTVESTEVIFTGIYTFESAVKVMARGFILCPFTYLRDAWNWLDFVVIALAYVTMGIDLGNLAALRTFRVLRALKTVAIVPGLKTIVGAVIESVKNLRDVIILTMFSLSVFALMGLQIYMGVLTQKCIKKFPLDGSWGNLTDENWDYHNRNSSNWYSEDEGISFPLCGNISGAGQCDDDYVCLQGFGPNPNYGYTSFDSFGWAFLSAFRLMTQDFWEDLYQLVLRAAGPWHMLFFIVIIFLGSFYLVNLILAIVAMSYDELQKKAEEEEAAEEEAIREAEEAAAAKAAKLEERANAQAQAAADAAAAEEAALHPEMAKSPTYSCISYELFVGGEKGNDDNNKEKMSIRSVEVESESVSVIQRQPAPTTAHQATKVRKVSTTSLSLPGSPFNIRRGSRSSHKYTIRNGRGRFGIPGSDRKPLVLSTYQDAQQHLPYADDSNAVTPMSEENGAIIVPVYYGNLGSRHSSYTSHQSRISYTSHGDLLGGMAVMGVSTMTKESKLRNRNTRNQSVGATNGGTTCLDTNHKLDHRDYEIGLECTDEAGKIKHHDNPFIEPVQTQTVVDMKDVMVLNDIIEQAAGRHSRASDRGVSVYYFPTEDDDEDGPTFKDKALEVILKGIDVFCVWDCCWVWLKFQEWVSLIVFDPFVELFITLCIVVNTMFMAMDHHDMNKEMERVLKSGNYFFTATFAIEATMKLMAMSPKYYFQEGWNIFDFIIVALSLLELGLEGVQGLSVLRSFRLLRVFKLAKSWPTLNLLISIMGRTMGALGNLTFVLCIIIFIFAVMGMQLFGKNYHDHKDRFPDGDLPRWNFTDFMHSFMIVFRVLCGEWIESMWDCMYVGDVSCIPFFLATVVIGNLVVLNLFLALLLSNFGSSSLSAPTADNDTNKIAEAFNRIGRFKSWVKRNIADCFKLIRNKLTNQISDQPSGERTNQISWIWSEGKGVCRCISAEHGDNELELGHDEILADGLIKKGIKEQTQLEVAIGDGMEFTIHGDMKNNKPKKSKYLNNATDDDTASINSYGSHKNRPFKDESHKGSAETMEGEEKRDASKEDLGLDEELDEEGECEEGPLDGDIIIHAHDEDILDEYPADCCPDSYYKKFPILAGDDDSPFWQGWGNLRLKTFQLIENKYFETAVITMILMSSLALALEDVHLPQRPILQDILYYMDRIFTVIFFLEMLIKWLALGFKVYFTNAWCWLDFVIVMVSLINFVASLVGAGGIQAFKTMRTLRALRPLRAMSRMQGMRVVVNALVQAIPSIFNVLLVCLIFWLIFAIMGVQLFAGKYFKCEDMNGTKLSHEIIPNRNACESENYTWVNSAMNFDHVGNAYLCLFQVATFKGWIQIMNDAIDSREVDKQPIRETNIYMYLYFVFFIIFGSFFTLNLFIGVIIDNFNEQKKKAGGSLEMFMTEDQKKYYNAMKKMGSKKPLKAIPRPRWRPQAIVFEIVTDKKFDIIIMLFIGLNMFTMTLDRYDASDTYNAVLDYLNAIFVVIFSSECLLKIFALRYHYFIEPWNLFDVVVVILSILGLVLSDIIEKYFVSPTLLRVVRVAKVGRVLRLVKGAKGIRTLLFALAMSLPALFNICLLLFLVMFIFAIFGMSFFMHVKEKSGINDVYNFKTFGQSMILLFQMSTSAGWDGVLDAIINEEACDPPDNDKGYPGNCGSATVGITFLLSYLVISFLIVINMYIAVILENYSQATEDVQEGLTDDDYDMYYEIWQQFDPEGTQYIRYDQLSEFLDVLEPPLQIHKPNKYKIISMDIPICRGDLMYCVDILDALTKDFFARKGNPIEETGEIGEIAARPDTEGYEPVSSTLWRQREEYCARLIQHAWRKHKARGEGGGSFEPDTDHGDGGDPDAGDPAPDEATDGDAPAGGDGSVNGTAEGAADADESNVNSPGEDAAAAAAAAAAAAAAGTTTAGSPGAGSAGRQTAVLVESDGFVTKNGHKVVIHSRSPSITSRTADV

Structure (SMILES) | shifts in activation, inactivation, or recovery from inactivation (honeybee Para channel; 10 µM in extracellular medium, Para co-expressed with TipE) | tail current induction (honeybee Para channel; 10 µM) | number of conditioning pulses at which the maximal effect is reached (honeybee Para channel; 10 µM, tail current amplitude) [pulses] | Hill coefficient (honeybee Para channel) | time constant of deactivation of tail currents (single exponential) (honeybee Para channel; single exponential fit) [s] | inversion (reversal potential) of tail current (honeybee Para channel; tail current after 200 conditioning pulses, linear voltage-dependence) | EC50 [1] [nM] | EC50 (drosophila Para channel) [nM] | relative weight of the slow component of tail current deactivation (honeybee Para channel; double exponential fit) [%] | time constant of tail current deactivation, first exponential (honeybee Para channel; double exponential fit) [s] | time constant of tail current deactivation, second exponential (honeybee Para channel; double exponential fit) [s] | EC50 (honeybee Para channel; fraction of channels bound vs dose, Hill fit, 1700 conditioning pulses, Para + TipE in oocytes, read-out: half maximal effective concentration (EC50))
CC1(C)C(C=C(Cl)Cl)C1C(=O)OCc1cccc(Oc2ccccc2)c1 (centres unmarked) [permethrin] | no significant effect; also recorded: did not induce statistically significant shifts | induced tail currents | 200 | 0.8263 and 0.83 | 0.93 | approximately +10 mV | 3500 | 12 | – | – | – | –
CC(C)C(C(=O)OC(C#N)c1cccc(Oc2ccccc2)c1)c1ccc(Cl)cc1 (centres unmarked) [fenvalerate] | – | induced a tail current | – | 1.1817 and 1.18 | – | – | – | – | 85.4 | 9.9 | 31.8 | 289 nM and ~290 nM
